According to article PMC9354954, “Assessing Bioavailability and Bioactivity of 4-Hydroxythiazolidine-2-Thiones, Newly Discovered Glucosinolate Degradation Products Formed During Domestic Boiling of Cabbage” (Frontiers in Nutrition, 2022):
Like-named read-outs stand apart in the source and are kept apart here.

Legend:
[1] = Stability in an in vitro stomach model; format: in vitro ADME; conditions: 100 μM, 2 h, 37°C, stomach model solution pH 2
Protocol: To investigate the stability of the HTTs in the process of nutrient absorption, allyl HTT and 4-MSOB HTT were incubated (prepared as triplicates) at a concentration of 100 μM in an in vitro stomach model solution containing 2.9 g/L NaCl, 0.7 g/L KCl, 0.27 g/L KH2PO4, 0.78 g/L pepsin, and 3 g/L mucin-type II and adjusted with 1 M HCl to pH 2.0 based on literature ([25]). To simulate the stomach, samples were shaken slightly for 2 h at 200 rpm in a thermoshaker (MHR 23, Hettich Benelux B.V, Netherlands) at 37°C. Afterward, 500 μL of MeCN were added to 500 μL of stomach model solution to precipitate proteins and salts. The suspension was centrifuged for 3 min at 4,000 g and the supernatant was analyzed by HPLC-UV at a wavelength of 274 ± 2 nm. The stability of allyl HTT and 4-MSOB HTT in the stomach model was determined by the recovery compared to incubation in pure water at room temperature. […]

[2] = Determination of log P (octanol/water); format: physicochemical; conditions: room temperature; for concentration ratio in the octanol phase compared to the water phase: 18 h, triplicates; for logP at 18 h: octanol/water
Protocol: For the determination of log P of the HTTs, two solutions were used: water saturated with octanol and octanol saturated with water. […] The spiked octanol-water mixture was vortexed for 30 s and the mixture was incubated for 18 h at room temperature to obtain analyte equilibrium distribution. For determination of the log P-value, 50 μL of the water phase was taken and measured by HPLC-UV at 274 ± 2 nm with HPLC method 2 (see Section Stability of 4-Hydroxythiazolidine-2-Thiones in a Stomach Model) with an injection volume of 10 μL. The analyte concentration in the water phase was determined by using external calibration. The relative analyte content in the water phase was calculated by using the following equation:
analyte content in water phase in % =measured concentration in water phase of the mixture/2 · concentration in pure water reference ·100%
The relative analyte content in the octanol phase was calculated at 100% minus the relative analyte concentration in the water phase. The reported results are the mean ± SD of the three determined log P-values for the three repetitions.

[3] = Antioxidant potential, DPPH assay; conditions: compared to compound free blank
Protocol: (§1) To evaluate the potential of allyl HTT and 4-MSOB HTT to act as antioxidants, ABTS and DPPH were used as model radicals and Trolox as reference antioxidants based on Shalaby and Shanab ([28]). In total, 1.5 mg of ABTS and 0.26 mg potassium peroxodisulfate were dissolved in 4 mL of pure water and incubated in the dark overnight at room temperature. Afterward, 36 mL of MeOH were added to obtain the fresh ABTS working solution. In the case of the DPPH assay, 1.1 mg of DPPH were dissolved in 4 mL of MeOH and incubated for 2 h in the dark at 4°C, followed by the addition of 36 mL of MeOH to obtain the fresh DPPH working solution. Standards of Trolox, allyl HTT, and 4-MSOB HTT were prepared in water/MeOH (90/10, v/v%) at concentrations in the range of 6.25–100 μM. To detect the antioxidant potential, 100 μL of standard or water/MeOH (90/10, v/v%) as control were added to 1,000 μL of ABTS or DPPH working solution, and the extinction was measured directly after mixing and after 6 min of incubation in the dark with a spectrometer (UviLine 9100, Schott Instruments, Mainz, Germany) at 734 nm in the case of ABTS assay and 515 nm in DPPH assay (each prepared as duplicate). The results are reported as mean ± SD of the reduction of the extinction compared to the control.

[4] = tested on: Caco-2 cell layer
[5] = set-up: method as in PMID 35761548; conditions: recently calculated; cited from earlier work
[6] = Antioxidant potential, ABTS assay; conditions: compared to compound free blank
Protocol: as §1

[7] = inverse exposure: spiked in the lower compartment, 2 min
[8] = inverse exposure: spiked in the lower compartment, 1 h
[9] = inverse exposure: spiked in the lower compartment, 2 h
[10] = inverse exposure: spiked in the lower compartment, 24 h
[11] = spiked in the upper compartment, 2 min
[12] = spiked in the upper compartment, 1 h
[13] = spiked in the upper compartment, 2 h
[14] = spiked in the upper compartment, 24 h

Structure (SMILES)	recovery compared to the pure water control reference [1] [%]	concentration ratio in the octanol phase compared to the water phase [2]	logP at 18 h [2]	Relative signal reduction of the extinction value of the radical DPPH ([3]; 6.25 µM) [%]	Relative signal reduction of the extinction value of the radical DPPH ([3]; 12.5 µM) [%]	Relative signal reduction of the extinction value of the radical DPPH ([3]; 25 µM) [%]	Relative signal reduction of the extinction value of the radical DPPH ([3]; 50 µM) [%]	Relative signal reduction of the extinction value of the radical DPPH ([3]; 100 µM) [%]	Concentration ratio of compartment non-spiked vs. spiked [4, 7] [%]	Concentration ratio of compartment non-spiked vs. spiked [4, 8] [%]	Concentration ratio of compartment non-spiked vs. spiked [4, 9] [%]	Concentration ratio of compartment non-spiked vs. spiked [4, 10] [%]	Concentration ratio of compartment non-spiked vs. spiked [4, 11] [%]	Concentration ratio of compartment non-spiked vs. spiked [4, 12] [%]	Concentration ratio of compartment non-spiked vs. spiked [4, 13] [%]	Concentration ratio of compartment non-spiked vs. spiked [4, 14] [%]	calculated log P (partition coefficient in octanol/water) [5]	Relative signal reduction of the extinction value of the radical ABTS ([6]; 6.25 µM) [%]	Relative signal reduction of the extinction value of the radical ABTS ([6]; 12.5 µM) [%]	Relative signal reduction of the extinction value of the radical ABTS ([6]; 25 µM) [%]	also measured
C[S+]([O-])CCCCN1C(=S)SCC1O (stereo not drawn) [4-MSOB HTT, 4-hydroxy-3-(4-(methylsulfinyl)butyl)thiazolidine-2-thione]	98 ± 3	0.45 ± 0.04	-0.35 ± 0.04	0.3 ± 0.4	0.0 ± 0.3	0.3 ± 0.3	0.3 ± 0.4	0.3 ± 0.4	0	5	11	99	0	1	3	54	−1.12	0.6 ± 0.5	-0.1 ± 0.5	-0.5 ± 0.4	Relative signal reduction of the extinction value of the radical ABTS ([6]; 50 µM): 1.1 ± 0.8%; Relative signal reduction of the extinction value of the radical ABTS ([6]; 100 µM): 0.4 ± 0.5%
C=CCN1C(=S)SCC1O (stereo not drawn) [allyl HTT, 3-allyl-4-hydroxythiazolidine-2-thione]	98 ± 2	8.1 ± 0.4	0.91 ± 0.02	0.2 ± 0.3	0.0 ± 0.3	0.1 ± 0.3	0.1 ± 0.3	0.0 ± 0.3	0	39	64	102	1	17	42	96	0.47	-0.2 ± 0.3	-0.3 ± 0.3	0.4 ± 0.4	measured ratio for the higher uptake of allyl HTT compared to 4-MSOB HTT ([4]; human, Caco-2, 100 μM): 10 fold; Relative signal reduction of the extinction value of the radical ABTS ([6]; 50 µM): 0.3 ± 0.5%; Relative signal reduction of the extinction value of the radical ABTS ([6]; 100 µM): -0.3 ± 0.3%
